Converted amounts (≈) assume the structure as drawn. Like-named read-outs stand apart in the source and are kept apart here.
Experiments:
[1] = Pharmacokinetic (PK) study in mice; format: in vivo, C57BL/6 male mice; settings: for bioavailability: C57BL/6, plasma, mouse
Description: Data are mean (±standard deviation (SD)) from three mice at each time point. […]
PK profiling was outsourced and undertaken by Shanghai ChemPartner Co., Ltd. All animal experiments performed were conducted in compliance with the Institutional Animal Care and Use Committee (IACUC) and the Office of Laboratory Animal Welfare (OLAW) guidelines. Six to eight week old C57BL/6 male mice purchased from Jihui Laboratory Animal Co., Ltd. were used in the study. […] The animals were restrained manually at the designated time points (0.083, 0.25, 0.5, 1, 2, 4, and 8 h); approximately, 110 μL of blood sample was collected via facial vein into K2EDTA tubes. Three mice per time point were used, resulting in a total of 21 mice for each administration route. The blood sample was put on ice and centrifuged at 2000g for 5 min to obtain the plasma sample within 15 min. The plasma, brain, and CSF samples were stored at approximately −70 °C until analysis. A 30 μL aliquot of plasma was added with 200 μL of internal standard (Glipozode, 40 ng/mL) in MeCN with 5% Citri. The mixture was then vortexed for 1 min and then centrifuged for 10 min at 5800 rpm. The supernatant (100 μL) was transferred to a new plate. The solution (1 μL) was injected into LC-MS/MS. LC-MS/MS instrument used: SCIEX LC-MS/MS-49 (Triple Quad 6500+). Data were analyzed by WinNonLin and Microsoft Excel.

LRRK2-NanoLuc = target: T1, LRRK2-NanoLuc (Homo sapiens, UniProt Q5S007); experiment: NanoBRET binary LRRK2 binding in HEK293 lysate; settings: compound alone, lysate of HEK293 cells, LRRK2 tracer
T1 construct: host or cells: HEK293
Description: In the maximum signal control samples (DMSO control), DMSO was added instead of testing compounds.

LRRK1, VPS35, PPM1H = experiment: TMT-based global proteomic profiling in WT MEFs, LRRK2-related proteins; format: cell-based, mouse; settings: 300 nM, 4 h
Caco-2 cell permeability = format: in vitro ADME; settings: human
Description: Caco-2 cells with transepithelial electrical resistance (TEER) (TEER = (resistance sample – resistance blank) × effective membrane area) = 450 ± 19 Ω cm^2were used for the experiment. Compounds were dissolved in the appropriate buffer (10 mM DMSO stock solutions were diluted with HBSS buffer to a final concentration of 10 μM testing compound and 0.4% DMSO, Lucifer Yellow was introduced in the apical side buffer to test the intactness of the monocell layer) and was applied to the apical or basolateral donor side for measuring A–B or B–A permeability (two replicates), respectively. The apical and basolateral plates were prewarmed to 37 °C before placing the apical plate onto the basolateral plate. After incubating at 37 °C for 90 min, the apical plate and basolateral plate were separated, and the donor or receiver samples were analyzed with UPLC-MS/MS.

[2] = Mouse liver microsome stability; format: in vitro ADME; settings: liver microsomes
Description: Testing compound (1.5 μL) or reference compound (500 μM in 5% DMSO and 95% acetonitrile) was mixed with 18.75 μL of 20 mg/mL liver microsome (Corning) and 479.75 μL of potassium phosphate buffer (0.1 M potassium phosphate buffer, 1 mM EDTA, pH 7.4). The reaction was started by mixing 30 μL of the above mixture (prewarmed to 37 °C) with 15 μL of 6 mM NADPH stock solution (prewarmed to 37 °C). After incubating for 5, 15, 30, or 45 min, 135 μL of acetonitrile containing internal standard was added to stop the reaction. For 0 min, the compound and microsome mixture were mixed with acetonitrile first before adding NADPH. After quenching, the reaction mixture was centrifuged, and the supernatant was taken and diluted for LC-MS analysis.

[3] = Solubility in phosphate buffer and FeSSIF; format: physicochemical
Description: Eight microliters of reference or test compound stock solution (10 mM in DMSO) was added to 792 μL of 100 mM phosphate buffer (pH 7.4) or FeSSIF (pH 5.8). The resulting mixture was shaken for 1 h (1000 rpm) at room temperature and then centrifuged for 10 min (12 000 rpm) to remove the undissolved particles. The supernatant was collected and diluted 10 times and 100 times separately with 100 mM phosphate buffer or FeSSIF. Five microliters of the supernatant samples (no diluted, 10 times diluted, 100 times diluted) were mixed with 95 μL of acetonitrile (containing internal standard) separately before injecting into LC-MS/MS for analysis.

Plasma stability assay = format: in vitro ADME; settings: mouse plasma, 37 °C; read-out: T1/2 in mouse plasma
Description: Frozen plasma was thawed at 37 °C and centrifuged at 3000 rpm for 8 min to remove clots, and the supernatant was used in the experiment. The pH of the plasma was recorded, and only the pH range between 7.4 and 8 was used. The plasma and compound solution were prewarmed to 37 °C. Ten microliters of prewarmed testing compound or reference compound (procaine) solution (20 μM in 0.05 mM sodium phosphate buffer (pH 7.4) with 0.5% BSA) was mixed with 90 μL of plasma at different time points to allow for 5, 15, 30, 45, and 60 min of incubation time. For 0 min, the plasma was mixed with vehicle only. Acetonitrile was added to the compound and plasma mixture to quench the reaction, and the resulting mixture was centrifuged (5594g for 15 min). The supernatant was taken and diluted before LC-MS analysis.

[4] = male, C57BL/6, IP 30 mg/kg, mouse plasma
[5] = male, C57BL/6, IV 5 mg/kg, mouse plasma
[6] = male, C57BL/6, PO 30 mg/kg, mouse plasma

T1 sequence (Q5S007 whole entry): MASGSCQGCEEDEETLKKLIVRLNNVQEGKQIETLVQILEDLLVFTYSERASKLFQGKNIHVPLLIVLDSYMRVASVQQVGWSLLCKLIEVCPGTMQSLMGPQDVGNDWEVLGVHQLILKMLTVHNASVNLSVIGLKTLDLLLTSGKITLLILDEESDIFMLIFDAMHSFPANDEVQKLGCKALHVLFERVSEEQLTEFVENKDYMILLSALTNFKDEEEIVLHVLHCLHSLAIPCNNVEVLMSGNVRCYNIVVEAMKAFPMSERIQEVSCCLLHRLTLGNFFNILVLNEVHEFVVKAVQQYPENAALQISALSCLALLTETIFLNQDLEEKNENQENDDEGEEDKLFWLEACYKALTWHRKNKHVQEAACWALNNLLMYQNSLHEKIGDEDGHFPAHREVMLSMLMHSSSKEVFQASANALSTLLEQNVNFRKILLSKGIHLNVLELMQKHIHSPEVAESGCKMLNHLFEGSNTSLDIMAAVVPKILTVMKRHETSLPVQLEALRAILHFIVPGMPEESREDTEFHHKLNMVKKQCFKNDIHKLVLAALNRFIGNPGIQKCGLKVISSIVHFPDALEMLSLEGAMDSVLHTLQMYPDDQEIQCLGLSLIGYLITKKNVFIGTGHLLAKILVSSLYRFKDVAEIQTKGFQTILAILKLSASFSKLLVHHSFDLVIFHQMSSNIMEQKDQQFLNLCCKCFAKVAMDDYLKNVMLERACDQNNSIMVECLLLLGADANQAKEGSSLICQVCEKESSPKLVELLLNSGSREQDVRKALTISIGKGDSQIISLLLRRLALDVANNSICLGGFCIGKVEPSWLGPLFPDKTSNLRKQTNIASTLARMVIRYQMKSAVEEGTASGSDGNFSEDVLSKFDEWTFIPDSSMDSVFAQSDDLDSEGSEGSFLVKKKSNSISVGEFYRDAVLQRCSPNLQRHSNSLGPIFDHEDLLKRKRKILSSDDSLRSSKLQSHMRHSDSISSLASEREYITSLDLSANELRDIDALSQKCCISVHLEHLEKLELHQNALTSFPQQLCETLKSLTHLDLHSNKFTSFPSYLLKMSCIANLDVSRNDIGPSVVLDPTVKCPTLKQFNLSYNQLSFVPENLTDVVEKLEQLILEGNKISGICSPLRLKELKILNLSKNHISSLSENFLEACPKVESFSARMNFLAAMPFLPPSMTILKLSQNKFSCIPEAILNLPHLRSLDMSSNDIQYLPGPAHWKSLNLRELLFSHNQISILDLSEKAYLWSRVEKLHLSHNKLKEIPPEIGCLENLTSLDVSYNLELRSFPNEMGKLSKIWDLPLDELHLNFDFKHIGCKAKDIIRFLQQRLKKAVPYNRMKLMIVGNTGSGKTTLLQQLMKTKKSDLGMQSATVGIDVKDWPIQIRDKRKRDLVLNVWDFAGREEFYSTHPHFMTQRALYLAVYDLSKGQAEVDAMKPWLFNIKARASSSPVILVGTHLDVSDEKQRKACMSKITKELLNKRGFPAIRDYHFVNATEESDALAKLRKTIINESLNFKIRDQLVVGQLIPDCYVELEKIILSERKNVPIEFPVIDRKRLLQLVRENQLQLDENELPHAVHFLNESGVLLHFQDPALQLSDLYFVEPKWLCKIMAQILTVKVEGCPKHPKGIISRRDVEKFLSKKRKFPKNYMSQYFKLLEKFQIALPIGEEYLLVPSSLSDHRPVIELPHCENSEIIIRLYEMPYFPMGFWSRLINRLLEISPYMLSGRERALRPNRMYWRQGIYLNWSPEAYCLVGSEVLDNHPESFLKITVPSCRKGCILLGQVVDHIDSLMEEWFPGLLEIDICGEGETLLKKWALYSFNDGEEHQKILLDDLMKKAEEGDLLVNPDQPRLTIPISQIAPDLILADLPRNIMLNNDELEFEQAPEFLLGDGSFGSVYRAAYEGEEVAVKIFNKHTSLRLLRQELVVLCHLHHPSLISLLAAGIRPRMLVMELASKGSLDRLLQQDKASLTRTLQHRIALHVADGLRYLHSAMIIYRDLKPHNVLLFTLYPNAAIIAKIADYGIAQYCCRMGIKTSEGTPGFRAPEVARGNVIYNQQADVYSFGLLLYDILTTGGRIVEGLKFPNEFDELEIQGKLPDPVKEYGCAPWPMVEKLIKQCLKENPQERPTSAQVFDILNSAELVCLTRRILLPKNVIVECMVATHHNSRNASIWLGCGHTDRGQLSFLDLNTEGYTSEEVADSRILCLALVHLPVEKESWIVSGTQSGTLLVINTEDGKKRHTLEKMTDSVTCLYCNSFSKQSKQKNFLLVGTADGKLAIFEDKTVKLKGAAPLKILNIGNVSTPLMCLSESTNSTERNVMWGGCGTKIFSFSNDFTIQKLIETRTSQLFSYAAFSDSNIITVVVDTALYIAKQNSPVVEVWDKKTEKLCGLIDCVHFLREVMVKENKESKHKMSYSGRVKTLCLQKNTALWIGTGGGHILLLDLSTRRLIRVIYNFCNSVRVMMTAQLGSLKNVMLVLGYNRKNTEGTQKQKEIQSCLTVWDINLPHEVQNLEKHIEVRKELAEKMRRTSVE

CNc1nc(Nc2ccc(C(=O)N3CCN(C[C@H]4CC[C@H](CSC(C)(C)[C@H](NC(=O)C5(F)CC5)C(=O)N5C[C@H](O)CC5C(=O)NCc5ccc(-c6scnc6C)cc5)CC4)CC3)cc2OC)ncc1Cl (stereo partly drawn) [XL01126, (2S,4R)-1-((R)-3-((((1R,4R)-4-((4-(4-((5-Chloro-4-(methylamino)pyrimidin-2-yl)amino)-3-methoxybenzoyl)piperazin-1-yl)methyl)cyclohexyl)methyl)thio)-2-(1-fluorocyclopropane-1-carboxamido)-3-methylbutanoyl)-4-hydroxy-N-(4-(4-methylthiazol-5-yl)benzyl)pyrrolidine-2-carboxamide]
Kp ([1]; male, C57BL/6, mouse, brain, other: IV, mice, single dose IV, IP or PO, read-out: brain-to-plasma ratio): < 0.035
bioavailability ([1]; male, IP 30 mg/kg, read-out: F): 29.2%
bioavailability ([1]; male, PO 30 mg/kg, read-out: F, oral bioavailability): 15%
AUC(0-inf) [1, 4]: 64100 ng·h/mL
AUC(0-t) [1, 4]: 41400 ng·h/mL
Cmax [1, 4]: 7700 ng/mL
Tmax [1, 4]: 0.25 h
half-life [1, 4]: 5.2 h
AUC(0-inf) [1, 5]: 24000 ng·h/mL
AUC(0-t) [1, 5]: 23700 ng·h/mL
MRT [1, 5]: 2.45 h
clearance [1, 5]: 3.47 mL/min/kg
half-life [1, 5]: 1.52 h
Vd ([1]; male, C57BL/6, IV 5 mg/kg, mouse plasma, read-out: Vss): 0.511 L/kg
AUC(0-inf) [1, 6]: 109000 ng·h/mL
AUC(0-t) [1, 6]: 21300 ng·h/mL
Cmax [1, 6]: 3620 ng/mL
Tmax [1, 6]: 2 h
half-life [1, 6]: 21.9 h
presence in brain tissues and CSF (in words) ([1]; mice, single dose IV, IP or PO): detected in brain tissues and CSF
IC50 (LRRK2-NanoLuc): 2000 nM
levels of LRRK1, VPS35 and PPM1H (in words) (LRRK1, VPS35, PPM1H): remained unaffected
Papp A→B at 90 min, 10 µM (Caco-2 cell permeability; A–B): < 0.74 ×10⁻⁶ cm/s
Papp B→A at 90 min, 10 µM (Caco-2 cell permeability; B–A): < 1.43 ×10⁻⁶ cm/s
CLint scaled at 1 µM ([2]; pH 7.4): 1490 mL/min/kg
half-life at 1 µM ([2]; pH 7.4, read-out: T1/2 in mouse liver microsome): 3.65 min
solubility at 1 h ([3]; 100 mM phosphate buffer, pH 7.4, read-out: solubilities in PBS (pH 7.4)): 0.55 µM (≈ 0.561 µg/mL)
solubility at 1 h ([3]; FeSSIF, pH 5.8, read-out: solubility in FeSSIF (pH 5.8)): 26.1 µM (≈ 26.6 µg/mL)
half-life at 2 µM (Plasma stability assay): 1.8 h
